Test results taken from US6461997B1, “Triazole sulfones having herbicidal activity” (Monsanto Technology LLC, priority 1999, dated 2002).

Columns and labels:
[1] = test system: AGSST (creeping bentgrass); assay: Pre-emergence herbicidal activity, cool season; format: in vivo, Agrostis stolonifera; settings: GR80 = lowest tested rate (300, 100, 30, 10 g/ha) with 80% or greater inhibition; approx. 14 days after treating; 18/13° C.
Method in brief: (§1)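 GR80 values derive from percent inhibition relative to untreated plants, read roughly 14 days after sowing and pre-emergence soil-surface treatment (compound in 50:50 acetone/water; rates typically 10, 30, 100, 300 g/ha). Warm-season weeds grew at 30/21° C day/night, cool-season ones at 18/13° C; an asterisk marks activity without reaching 80% at the highest rate.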

ABUTH (velvetleaf) = assay: Pre-emergence herbicidal activity, warm season; format: in vivo, Abutilon theophrasti; settings: GR80 = lowest tested rate (300, 100, 30, 10 g/ha) with 80% or greater inhibition; approx. 14 days after treating; 30/21° C.
Description: (§2) Tables 5 to 8 summarize results of tests conducted as described below to determine the pre-emergence herbicidal activity, in the form of a GR80 value, of illustrative compounds of this invention. […] Compounds of the invention were typically applied at rates of 300, 100, 30, and 10 g/ha. Where herbicidal activity was evident but 80% inhibition was not achieved at the highest rate tested, an asterisk (*) is shown in the following tables.
(§3) The pre-emergence tests were conducted by the following procedure. Topsoil was sieved to pass through a 1.27 cm screen. Fertilizer was added to the topsoil and the mixture was then sterilized by heating. The topsoil mixture was placed in a pot and compacted to a depth of 1.0 to 1.25 cm from the top of the pot. Seeds of each of several monocotyledonous and dicotyledonous annual plant species were placed on top of the soil. Additional soil was subsequently placed over the seeds to level-fill the pot. A known amount of each test compound dissolved or suspended in an appropriate organic solvent was diluted with a 50:50 mix of acetone and water and applied to the surface of the soil. After treatment the plants were placed in a greenhouse where they received 0.64 cm of overhead irrigation. All subsequent watering consisted of a light overhead mist and/or subirrigation as needed for germination and growth. Tables 5 and 6 below relate to warm season plant species which were placed after pre-emergence treatment in a greenhouse with a 30/21° C. day/night temperature regime. Tables 7 and 8 below relates to cool season plant species placed after pre-emergence treatment in a greenhouse or growth chamber with an 18/13° C. day/night temperature regime.
(§4) Approximately 14 days after planting and treating, the plants were observed and herbicidal efficacy recorded as percent inhibition by comparison with untreated plants.
(§5) The plant species usually regarded as weeds which were utilized in the tests are identified in the tables below according to the following legend, in which “d” indicates a dicotyledonous species and “m” a monocotyledonous species. All monocotyledonous species included in the tests herein are grasses.

DIGSA (large crabgrass) = assay: Pre-emergence herbicidal activity, warm season; format: in vivo, Digitaria sanguinalis; settings: GR80 = lowest tested rate (300, 100, 30, 10 g/ha) with 80% or greater inhibition; approx. 14 days after treating; 30/21° C.
Method in brief: (§6)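 Pre-emergence soil-surface spray; rates 300/100/30/10 g/ha; acetone:water 50:50 diluent. Warm-season species (PANMI, DIGSA) grown at 30/21 °C, cool-season species (ALOMY, POLCO) at 18/13 °C. Inhibition scored ~14 d after treatment versus untreated controls → GR80.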

POLCO (wild buckwheat) = assay: Pre-emergence herbicidal activity, cool season; format: in vivo, Polygonum convolvulus; settings: lowest tested rate with 80% or greater inhibition; rates 300, 100, 30, 10 g/ha; about 14 days
Method in brief: as §6

POROL (common purslane) = assay: Pre-emergence herbicidal activity, warm season; format: in vivo, Portulaca oleracea; settings: GR80 = lowest tested rate (300, 100, 30, 10 g/ha) with 80% or greater inhibition; approx. 14 days after treating; 30/21° C.
Description: as §2, §3, §4, §5

ECHCG (barnyardgrass) = assay: Pre-emergence herbicidal activity, warm season; format: in vivo, Echinochloa crus-galli; settings: GR80 = lowest tested rate (300, 100, 30, 10 g/ha) with 80% or greater inhibition; approx. 14 days after treating; 30/21° C.
Method in brief: (§7)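 Seeds sown in sterilised fertilised topsoil received surface-applied compound in 50:50 acetone/water, typically at 300, 100, 30 and 10 g/ha, then greenhouse-grown at 30/21° C (warm-season species) or 18/13° C (cool-season species). Percent inhibition versus untreated plants was scored at about 14 days, giving GR80; an asterisk marks activity short of 80% at the top rate.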

STEME (common chickweed) = assay: Pre-emergence herbicidal activity, cool season; format: in vivo, Stellaria media; settings: lowest tested rate with 80% or greater inhibition; rates 300, 100, 30, 10 g/ha; about 14 days
Method in brief: as §1

[2] = test system: GALAP (catchweed bedstraw); assay: Pre-emergence herbicidal activity, cool season; format: in vivo, Galium aparine; settings: lowest tested rate with 80% or greater inhibition; rates 300, 100, 30, 10 g/ha; about 14 days
Method in brief: as §1

SETVI (green foxtail) = assay: Pre-emergence herbicidal activity, cool season; format: in vivo, Setaria viridis; settings: GR80 = lowest tested rate (300, 100, 30, 10 g/ha) with 80% or greater inhibition; approx. 14 days after treating; 18/13° C.
Method in brief: as §1

SASKR (russian thistle) = assay: Pre-emergence herbicidal activity, cool season; format: in vivo, Salsola kali; settings: lowest tested rate with 80% or greater inhibition; rates 300, 100, 30, 10 g/ha; about 14 days
Method in brief: as §1

SOLNI (black nightshade) = assay: Pre-emergence herbicidal activity, warm season; format: in vivo, Solanum nigrum; settings: GR80 = lowest tested rate (300, 100, 30, 10 g/ha) with 80% or greater inhibition; approx. 14 days after treating; 30/21° C.
Method in brief: as §1

[3] = test system: PANMI (wild proso millet); assay: Pre-emergence herbicidal activity, warm season; format: in vivo, Panicum miliaceum; settings: GR80 = lowest tested rate (300, 100, 30, 10 g/ha) with 80% or greater inhibition; approx. 14 days after treating; 30/21° C.
Method in brief: as §6

[4] = test system: LAMPU (purple deadnettle); assay: Pre-emergence herbicidal activity, cool season; format: in vivo, Lamium purpureum; settings: lowest tested rate with 80% or greater inhibition; rates 300, 100, 30, 10 g/ha; about 14 days
Method in brief: as §1

SORVU (shattercane) = assay: Pre-emergence herbicidal activity, warm season; format: in vivo, Sorghum vulgare; settings: GR80 = lowest tested rate (300, 100, 30, 10 g/ha) with 80% or greater inhibition; approx. 14 days after treating; 30/21° C.
Description: as §2, §3, §4, §5

[5] = test system: VERPE (creeping speedwell); assay: Pre-emergence herbicidal activity, cool season; format: in vivo, Veronica persicaria; settings: lowest tested rate with 80% or greater inhibition; rates 300, 100, 30, 10 g/ha; about 14 days
Method in brief: as §1

SETFA (giant foxtail) = assay: Pre-emergence herbicidal activity, warm season; format: in vivo, Setaria faberi; settings: GR80 = lowest tested rate (300, 100, 30, 10 g/ha) with 80% or greater inhibition; approx. 14 days after treating; 30/21° C.
Method in brief: as §7

[6] = test system: SORHA (johnsongrass (seedling)); assay: Pre-emergence herbicidal activity, warm season; format: in vivo, Sorghum halepense; settings: GR80 = lowest tested rate (300, 100, 30, 10 g/ha) with 80% or greater inhibition; approx. 14 days after treating; 30/21° C.
Method in brief: as §7

SINAR (wild mustard) = assay: Pre-emergence herbicidal activity, cool season; format: in vivo, Sinapis arvensis; settings: lowest tested rate with 80% or greater inhibition; rates 300, 100, 30, 10 g/ha; about 14 days
Method in brief: as §1

[7] = test system: BRAPP (broadleaf signalgrass); assay: Pre-emergence herbicidal activity, warm season; format: in vivo, Brachiaria platyphylla; settings: GR80 = lowest tested rate (300, 100, 30, 10 g/ha) with 80% or greater inhibition; approx. 14 days after treating; 30/21° C.
Description: as §2, §3, §4, §5

[8] = test system: CHEAL (common lambsquarters); assay: Pre-emergence herbicidal activity, warm season; format: in vivo, Chenopodium album; settings: GR80 = lowest tested rate (300, 100, 30, 10 g/ha) with 80% or greater inhibition; approx. 14 days after treating; 30/21° C.
Method in brief: as §1

ALOMY (blackgrass) = assay: Pre-emergence herbicidal activity, cool season; format: in vivo, Alopecurus myosuroides; settings: GR80 = lowest tested rate (300, 100, 30, 10 g/ha) with 80% or greater inhibition; approx. 14 days after treating; 18/13° C.
Method in brief: as §6

LOLMG (annual ryegrass) = assay: Pre-emergence herbicidal activity, cool season; format: in vivo, Lolium multiflorum; settings: GR80 = lowest tested rate (300, 100, 30, 10 g/ha) with 80% or greater inhibition; approx. 14 days after treating; 18/13° C.
Description: as §2, §3, §4, §5

## CCSC(F)(F)S(=O)(=O)c1ncn(C(=O)N(C)C2CCCCC2)n1 [Example 55]
[1]
  Pre-emergence activity (GR80) AGSST: 300 g/ha
ABUTH (velvetleaf)
  Pre-emergence activity (GR80) ABUTH: 300 g/ha
DIGSA (large crabgrass)
  Pre-emergence activity (GR80) DIGSA: 300 g/ha
POLCO (wild buckwheat)
  Pre-emergence activity GR80, POLCO: 300 g/ha
POROL (common purslane)
  Pre-emergence activity (GR80) POROL: 300 g/ha
ECHCG (barnyardgrass)
  Pre-emergence activity (GR80) ECHCG: 300 g/ha
STEME (common chickweed)
  Pre-emergence activity GR80, STEME: [empty]
[2]
  Pre-emergence activity GR80, GALAP: [empty]
SETVI (green foxtail)
  Pre-emergence activity (GR80) SETVI: 300 g/ha
SASKR (russian thistle)
  Pre-emergence activity GR80, SASKR: [empty]
SOLNI (black nightshade)
  Pre-emergence activity (GR80) SOLNI: 300 g/ha
[3]
  Pre-emergence activity (GR80) PANMI: 100 g/ha
[4]
  Pre-emergence activity GR80, LAMPU: [empty]
SORVU (shattercane)
  Pre-emergence activity (GR80) SORVU: 300 g/ha
[5]
  Pre-emergence activity GR80, VERPE: [empty]
SETFA (giant foxtail)
  Pre-emergence activity (GR80) SETFA: 300 g/ha
[6]
  Pre-emergence activity (GR80) SORHA: 300 g/ha
SINAR (wild mustard)
  Pre-emergence activity GR80, SINAR: [empty]
[7]
  Pre-emergence activity (GR80) BRAPP: 300 g/ha
[8]
  Pre-emergence activity (GR80) CHEAL: 300 g/ha

## CCSC(F)(F)S(=O)(=O)c1ncn(C(=O)N(C)OC)n1 [Example 57]
DIGSA (large crabgrass)
  Pre-emergence activity (GR80) DIGSA: 300 g/ha
POLCO (wild buckwheat)
  Pre-emergence activity GR80, POLCO: 100 g/ha
STEME (common chickweed)
  Pre-emergence activity GR80, STEME: 30 g/ha
ALOMY (blackgrass)
  Pre-emergence activity (GR80) ALOMY: 300 g/ha
LOLMG (annual ryegrass)
  Pre-emergence activity (GR80) LOLMG: 30 g/ha
[2]
  Pre-emergence activity GR80, GALAP: 300 g/ha
SETVI (green foxtail)
  Pre-emergence activity (GR80) SETVI: 300 g/ha
SASKR (russian thistle)
  Pre-emergence activity GR80, SASKR: 30 g/ha
[4]
  Pre-emergence activity GR80, LAMPU: [empty]
[5]
  Pre-emergence activity GR80, VERPE: 10 g/ha
SINAR (wild mustard)
  Pre-emergence activity GR80, SINAR: 30 g/ha

## C#CCN(C)C(=O)n1cnc(S(=O)(=O)C(F)(F)C(F)F)n1 [Example 66]
ABUTH (velvetleaf)
  Pre-emergence activity (GR80) ABUTH: 300 g/ha
POLCO (wild buckwheat)
  Pre-emergence activity GR80, POLCO: 300 g/ha
STEME (common chickweed)
  Pre-emergence activity GR80, STEME: [empty]
[2]
  Pre-emergence activity GR80, GALAP: [empty]
SASKR (russian thistle)
  Pre-emergence activity GR80, SASKR: 300 g/ha
[4]
  Pre-emergence activity GR80, LAMPU: [empty]
[5]
  Pre-emergence activity GR80, VERPE: 100 g/ha
SINAR (wild mustard)
  Pre-emergence activity GR80, SINAR: [empty]

## CON(C)C(=O)n1cnc(S(=O)(=O)C(F)(F)Cl)n1 [Example 93]
ABUTH (velvetleaf)
  Pre-emergence activity (GR80) ABUTH: 100 g/ha
POLCO (wild buckwheat)
  Pre-emergence activity GR80, POLCO: [empty]
STEME (common chickweed)
  Pre-emergence activity GR80, STEME: [empty]
[2]
  Pre-emergence activity GR80, GALAP: [empty]
SASKR (russian thistle)
  Pre-emergence activity GR80, SASKR: [empty]
[4]
  Pre-emergence activity GR80, LAMPU: [empty]
[5]
  Pre-emergence activity GR80, VERPE: 300 g/ha
SINAR (wild mustard)
  Pre-emergence activity GR80, SINAR: [empty]
